Literature values as cited in article PMC9387934, “Randomized single oral dose phase 1 study of safety, tolerability, and pharmacokinetics of Iminosugar UV-4 Hydrochloride (UV-4B) in healthy subjects” (PLoS Neglected Tropical Diseases, 2022).

Legend:
[1] = 300 mg BID; grade 3 transaminase, CK, and LDH elevations; cited from earlier work
[2] = 1108 patients, average of 6 months; cited from earlier work
[3] = 212 obese patients treated for 36 months; cited from earlier work
[4] = parameters: method as in FDA Advisory Briefing Book for Miglustat; conditions: humans, doses of up to 1000 mg TID; ref FDA Advisory Briefing Book for Miglustat; cited from earlier work
[5] = healthy male subjects; cited from earlier work
[6] = parameters: method as in Zavesca SmPC; conditions: ref Zavesca SmPC; cited from earlier work
[7] = dogs, 105 mg/kg/day given over 4 weeks; cited from earlier work
[8] = doses of 100 mg TID or less; cited from earlier work

Q: Which “Outcome of safety and tolerability study” value [1] does the source give for `CCCC(=O)O[C@H]1CN2CC[C@H](O)[C@@H]2[C@@H](O)[C@@H]1O` [Celgosivir] here?
A: Its value is “prematurely discontinued”.

Q: What does the source list for `C[C@H]1O[C@H](O[C@H]2[C@H](O)[C@@H](O)[C@@H](O[C@H]3[C@H](O)[C@@H](O)C(O)O[C@@H]3CO)O[C@@H]2CO)[C@H](O)[C@@H](O)[C@@H]1N[C@H]1C=C(CO)[C@@H](O)[C@H](O)[C@H]1O` (some centres unmarked) [acarbose]?
A: Rates of ALT elevations versus placebo [2]: no different; ALT elevations, share of patients [3]: 9%

Q: For `CCCCN1C[C@H](O)[C@@H](O)[C@H](O)[C@H]1CO` [miglustat, N-butyl-Deoxynojirimycin], which “Histamine-like findings as seen in rats” value [4] is on record?
A: Its value is “no similar findings”.

Q: And the AST elevations [5]?
A: Its AST elevations is “no AST elevations”.

Q: And the NOAEL [6]?
A: The NOAEL was 20 mg/kg.

Q: And the Neurologic findings [7]?
A: Its Neurologic findings is “tremor and reduction or absence of corneal reflexes”.

Q: What about the “Association with AST and ALT elevations” value [8] of the same molecule?
A: The value was “does not appear to be associated”.
